Test results reported in ChEMBL document CHEMBL1201862, “PubChem BioAssay data set” (2004).
“And” between values parts separate entries of the source, which are not always exact repeats. Identical values can stand only once.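 1) Cells in 96-well plates. 2) Compound, 48 h, 5 concentrations. 3) Linear interpolation between surrounding doses. 4) Unreached endpoint = highest concentration. GI50: concentration for 50% inhibition of growth.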 The source made the active and inactive calls. No stated cut-off is given here; in the data, active = GI50 up to about 1.1 µM and inactive = higher.

Tests used:
Assay in all cases: NCI anticancer screen, dose series, 48 h
[1] = system: 786-0
[2] = system: A498
[3] = system: BT-549
[4] = system: CAKI-1
[5] = system: CCRF-CEM
[6] = system: EKVX
[7] = system: HL-60
[8] = system: HOP-92
[9] = system: Hs-578T
[10] = system: K562
[11] = system: M14
[12] = system: MDA-MB-231
[13] = system: MDA-MB-435
[14] = system: MOLT-4
[15] = system: Malme-3M
[16] = system: NCI-H226
[17] = system: NCI-H23
[18] = system: NCI-H460
[19] = system: NCI-H522
[20] = system: NCI/ADR-RES
[21] = system: OVCAR-3
[22] = system: OVCAR-5
[23] = system: PC-3
[24] = system: RPMI-8226
[25] = system: SF-268
[26] = system: SF-295
[27] = system: SF-539
[28] = system: SK-MEL-28
[29] = system: SK-MEL-2
[30] = system: SK-OV-3
[31] = system: SNB-19
[32] = system: SNB-75
[33] = system: TK-10
[34] = system: UACC-257
[35] = system: UACC-62
[36] = system: UO-31
[37] = system: LOX IMVI
[38] = system: MCF7
[39] = system: SR
[40] = system: A549
[41] = system: ACHN
[42] = system: COLO 205
[43] = system: DU-145
[44] = system: HCC 2998
[45] = system: HCT-116
[46] = system: HCT-15
[47] = system: HOP-62
[48] = system: HT-29
[49] = system: IGROV-1
[50] = system: KM12
[51] = system: MDA-N
[52] = system: OVCAR-4
[53] = system: OVCAR-8
[54] = system: SK-MEL-5
[55] = system: SN12C
[56] = system: SW-620
[57] = system: T47D
[58] = system: U-251
[59] = system: RXF 393

## Cc1c(-c2c(C)c3ccccc3n2S(=O)(=O)c2ccccc2)n(S(=O)(=O)c2ccccc2)c2ccccc12
[1]
  GI50: 0.019 µM (active)
[2]
  GI50: > 100 µM (inactive)
[3]
  GI50: > 100 µM (inactive)
[4]
  GI50: 0.336 µM (active)
[5]
  GI50: > 100 µM (inactive)
[6]
  GI50: > 100 µM (inactive)
[7]
  GI50: > 100 µM (inactive)
[8]
  GI50: > 100 µM (inactive)
[9]
  GI50: > 100 µM (inactive)
[10]
  GI50: > 100 µM (inactive)
[11]
  GI50: > 22.2 µM (inactive)
[12]
  GI50: > 56.4 µM (inactive)
[13]
  GI50: > 100 µM (inactive)
[14]
  GI50: > 100 µM (inactive)
[15]
  GI50: 0.0299 µM (active)
[16]
  GI50: > 39.9 µM (inactive)
[17]
  GI50: > 72.8 µM (inactive)
[18]
  GI50: 0.0407 µM (active)
[19]
  GI50: > 100 µM (inactive)
[20]
  GI50: > 80 µM (inactive)
[21]
  GI50: 5.62 µM (inactive)
[22]
  GI50: > 51.6 µM (inactive)
[23]
  GI50: > 37.1 µM (inactive)
[24]
  GI50: > 100 µM (inactive)
[25]
  GI50: > 100 µM (inactive)
[26]
  GI50: > 100 µM (inactive)
[27]
  GI50: 0.0371 µM (active)
[28]
  GI50: > 100 µM (inactive)
[29]
  GI50: > 37.5 µM (inactive)
[30]
  GI50: > 82.6 µM (inactive)
[31]
  GI50: > 93.5 µM (inactive)
[32]
  GI50: > 31.6 µM (inactive)
[33]
  GI50: > 100 µM (inactive)
[34]
  GI50: > 100 µM (inactive)
[35]
  GI50: > 29.1 µM (inactive)
[36]
  GI50: > 100 µM (inactive)

## CC(C)(C)C1CCC2c3c([nH]c4ccccc34)C3C(=O)N(c4ccc(Cl)cc4)C(=O)C3C2C1 (stereo not drawn)
[2]
  GI50: > 10 µM (inactive)
[3]
  GI50: > 100 µM (inactive)
[5]
  GI50: > 10 µM (inactive) and 19.5 µM (inactive)
[7]
  GI50: > 10 µM (inactive) and 17.7 µM (inactive)
[37]
  GI50: 0.012 µM (active)
[38]
  GI50: 31.3 µM (inactive)
[15]
  GI50: > 10 µM (inactive)
[22]
  GI50: 0.0209 µM (active)
[29]
  GI50: > 10 µM (inactive)
[39]
  GI50: > 10 µM (inactive) and 18 µM (inactive)

## O=C1OC(C(O)CO)C(O)=C1O (stereo not drawn)
[1]
  GI50: > 100 µM (inactive)
[40]
  GI50: > 100 µM (inactive)
[41]
  GI50: > 100 µM (inactive)
[4]
  GI50: > 100 µM (inactive)
[5]
  GI50: > 10 µM (inactive)
[42]
  GI50: > 100 µM (inactive)
[43]
  GI50: > 100 µM (inactive)
[6]
  GI50: > 100 µM (inactive)
[44]
  GI50: > 100 µM (inactive)
[45]
  GI50: > 100 µM (inactive)
[46]
  GI50: > 100 µM
[7]
  GI50: > 100 µM (inactive)
[47]
  GI50: > 100 µM (inactive)
[8]
  GI50: > 100 µM (inactive)
[48]
  GI50: > 100 µM (inactive)
[9]
  GI50: > 100 µM (inactive)
[49]
  GI50: > 100 µM (inactive)
[10]
  GI50: 65.8 µM (inactive)
[50]
  GI50: > 100 µM (inactive)
[37]
  GI50: > 100 µM (inactive)
[11]
  GI50: > 100 µM (inactive)
[38]
  GI50: > 100 µM (inactive)
[12]
  GI50: > 100 µM (inactive)
[13]
  GI50: > 100 µM (inactive)
[51]
  GI50: > 100 µM (inactive)
[14]
  GI50: > 100 µM (inactive)
[15]
  GI50: > 100 µM (inactive)
[16]
  GI50: > 100 µM (inactive)
[17]
  GI50: > 100 µM (inactive)
[18]
  GI50: > 100 µM (inactive)
[19]
  GI50: > 100 µM (inactive)
[20]
  GI50: > 100 µM (inactive)
[21]
  GI50: > 100 µM (inactive)
[52]
  GI50: > 100 µM (inactive)
[22]
  GI50: > 100 µM (inactive)
[53]
  GI50: > 100 µM (inactive)
[23]
  GI50: > 100 µM (inactive)
[24]
  GI50: 49.2 µM (inactive)
[25]
  GI50: > 100 µM (inactive)
[26]
  GI50: > 100 µM (inactive)
[27]
  GI50: > 100 µM (inactive)
[28]
  GI50: > 100 µM (inactive)
[29]
  GI50: > 100 µM (inactive)
[54]
  GI50: > 100 µM (inactive)
[55]
  GI50: > 100 µM (inactive)
[31]
  GI50: > 100 µM (inactive)
[32]
  GI50: 99.8 µM (inactive)
[39]
  GI50: 55.3 µM (inactive)
[56]
  GI50: > 100 µM (inactive)
[57]
  GI50: > 100 µM (inactive)
[33]
  GI50: > 100 µM (inactive)
[58]
  GI50: > 100 µM (inactive)
[34]
  GI50: > 100 µM (inactive)
[36]
  GI50: > 100 µM (inactive)

## COc1cc(C2C3=C(NC(=O)C2C#N)c2ccc4ccccc4c2OCC3)cc(OC)c1OC (stereo not drawn)
[1]
  GI50: 31.5 µM (inactive)
[2]
  GI50: 12.4 µM (inactive)
[40]
  GI50: 54.2 µM (inactive)
[41]
  GI50: 16.6 µM (inactive)
[3]
  GI50: 17.3 µM (inactive)
[4]
  GI50: 20.1 µM (inactive)
[5]
  GI50: 70.8 µM (inactive)
[42]
  GI50: 15.4 µM (inactive)
[43]
  GI50: 34.4 µM (inactive)
[6]
  GI50: 89.7 µM (inactive)
[44]
  GI50: 25 µM (inactive)
[45]
  GI50: 15.7 µM (inactive)
[46]
  GI50: 41.8 µM
[7]
  GI50: 27 µM (inactive)
[47]
  GI50: 20 µM (inactive)
[8]
  GI50: 10.4 µM (inactive)
[48]
  GI50: 33 µM (inactive)
[9]
  GI50: 20.9 µM (inactive)
[49]
  GI50: 16.2 µM (inactive)
[10]
  GI50: 44.6 µM (inactive)
[50]
  GI50: 44.9 µM (inactive)
[11]
  GI50: 50 µM (inactive)
[38]
  GI50: 30.9 µM (inactive)
[13]
  GI50: 41.7 µM (inactive)
[14]
  GI50: 34.2 µM (inactive)
[15]
  GI50: 17.8 µM (inactive)
[17]
  GI50: 41.3 µM (inactive)
[18]
  GI50: 25.9 µM (inactive)
[19]
  GI50: 28.9 µM (inactive)
[20]
  GI50: 30.4 µM (inactive)
[21]
  GI50: 45 µM (inactive)
[52]
  GI50: 48 µM (inactive)
[22]
  GI50: 17.6 µM (inactive)
[53]
  GI50: 86.7 µM (inactive)
[23]
  GI50: 49.3 µM (inactive)
[24]
  GI50: 7.83 µM (inactive)
[59]
  GI50: 14.4 µM (inactive)
[25]
  GI50: 22.8 µM (inactive)
[26]
  GI50: 27.6 µM (inactive)
[27]
  GI50: 18.7 µM (inactive)
[28]
  GI50: 18.3 µM (inactive)
[29]
  GI50: 22.1 µM (inactive)
[54]
  GI50: 28.2 µM (inactive)
[30]
  GI50: 17.2 µM (inactive)
[55]
  GI50: 18.1 µM (inactive)
[31]
  GI50: 28.3 µM (inactive)
[32]
  GI50: 16.2 µM (inactive)
[56]
  GI50: 78.7 µM (inactive)
[57]
  GI50: 12.2 µM (inactive)
[33]
  GI50: > 100 µM (inactive)
[58]
  GI50: 16.7 µM (inactive)
[34]
  GI50: 56.5 µM (inactive)
[36]
  GI50: 15.1 µM (inactive)
